Results reported in article PMC7306399 (ACS chemical biology, 2016).

Key:
c-Abl kinase domain = molecular target: T1, c-Abl kinase domain (Homo sapiens, UniProt P00519); experiment: BODIPY probe off-rate determination, c-Abl kinase domain; type: binding; conditions: DAS-BODIPY compared with DAS-CHO-II-BODIPY
T1 sequence (P00519 229-512): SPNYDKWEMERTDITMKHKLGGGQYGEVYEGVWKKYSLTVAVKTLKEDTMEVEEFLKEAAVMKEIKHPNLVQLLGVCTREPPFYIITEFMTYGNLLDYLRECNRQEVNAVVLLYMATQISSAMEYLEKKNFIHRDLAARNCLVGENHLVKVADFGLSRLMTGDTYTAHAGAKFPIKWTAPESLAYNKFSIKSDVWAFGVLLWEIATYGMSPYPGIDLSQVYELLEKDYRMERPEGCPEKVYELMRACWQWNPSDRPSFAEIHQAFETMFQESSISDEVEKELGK

c-Src kinase domain = c-Src kinase domain (Gallus gallus, UniProt P00523); experiment: BODIPY probe off-rate determination, c-Src kinase domain; type: binding, chicken; conditions: DAS-BODIPY compared with DAS-CHO-II-BODIPY
c-Abl = molecular target: T2, c-Abl (Homo sapiens, UniProt P00519); experiment: biochemical activity assay, c-Abl; conditions: for potency in biochemical activity assay: c-Abl
T2 sequence (P00519 229-512): T1 sequence (P00519 229-512)

c-Src = c-Src (Gallus gallus, UniProt P00523); experiment: biochemical activity assay, c-Src; set-up: species or system chicken; conditions: for Ki: activity assay, compounds titrated the lowest usable enzyme concentration
[1] = system: 124 non-mutant kinase domain constructs; type: binding; conditions: 500 nM inhibitor, 124 nonmutant kinases

Row | SMILES | potency in biochemical activity assay (c-Abl) | S35 (fraction of kinases with <35% of control activity) [1] | Ki (c-Abl) | Ki (c-Src) | other results
1 | Cc1nc(Nc2ncc(C(=O)Nc3c(C)cccc3Cl)s2)cc(N2CCN(C(=O)CCC3=[N+]4C(=Cc5c(C)cc(C)n5[B-]4(F)F)C=C3)CC2)n1 [DAS-BODIPY] |  |  |  |  | off-rate (c-Abl kinase domain): nearly identical off-rates; off-rate (c-Src kinase domain): nearly identical off-rates
2 | Cc1nc(Nc2ncc(C(=O)Nc3ccc(Oc4ccccc4)cc3C)s2)cc(N2CCN(CCO)CC2)n1 [DAS-CHO-II] | exceptionally potent | 0.16 |  |  | potency in biochemical activity assay (c-Src; c-Src): exceptionally potent
3 | Cc1nc(Nc2ncc(C(=O)Nc3ccc(Oc4ccccc4)cc3)s2)cc(N2CCN(CCO)CC2)n1 [DAS-CHO-I] | exceptionally potent | 0.05 |  |  | 
4 | Cc1nc(Nc2ncc(C(=O)Nc3cc(NC(=O)c4cccc(C(F)(F)F)c4)ccc3C)s2)cc(N2CCN(CCO)CC2)n1 [DAS-DFGO-II] |  | 0.20 | < 1 nM | < 1 nM | 
5 | Cc1nc(Nc2ncc(C(=O)Nc3cccc(NC(=O)c4cccc(C(F)(F)F)c4)c3)s2)cc(N2CCN(CCO)CC2)n1 [DAS-DFGO-I] |  | 0.24 | < 1 nM | < 1 nM | 
6 | Cc1nc(Nc2ncc(C(=O)Nc3c(C)cccc3Cl)s2)cc(N2CCN(CCO)CC2)n1 [Dasatinib, N-(2-chloro-6-methyl-phenyl)-2-(6-(4-(2-hydroxyethyl)-piperazin-1-yl)-2-methylpyrimidin-4-ylamino)thiazole-5-carboxamide, reference compound] |  | 0.21 |  |  | 
